Data taken from patent publication US11866409B2, “Apoptosis related protein in the tgf-beta signaling pathway (ARTS) mimetic compounds, compositions, methods and uses thereof in induction of differentiation and/or apoptosis of premalignant and malignant cells, thereby restoring their normal-like phenotype” (CARMEL-HAIFA UNIVERSITY ECONOMIC CORPORATION LTD., priority 2015, dated 2024).

Key:
[1] = tested on: 6myc-ARTS; assay: Western blot, M2 cells transfected with 6myc-ARTS, caspase inhibition; type: cell-based, human
Procedure: (§1) The cells were transfected with either 6-MycTag-ARTS in pCS2 or sport-ARTS in pCMV plasmid, that was produced in Sarit Larisch lab as described previously (Larisch & Yi […]). For the transfection the Turbofect (Fermentas) was used with concentration of 0.1 μg/l DNA for 6-MycTag-ARTS and sport-ARTS plasmid.
(§2) The cells were lysed in WCE (whole-cell extract) buffer [[…] Hepes, pH 7.7, 0.3M NaCl, 1.5 mM MgCl2, 0.2 mM EDTA, 0.1% Triton X-100, 100 μg/ml PMSF and protease inhibitor cocktail (Roche, 1:100 dilution)]. 100 μg of total cell protein, measured with the Bio-Rad Protein Assay kit, were separated by SDS-PAGE (12%) followed by transfer for 2 h on to a nitrocellulose membrane. The membrane was blocked with 5% (w/v) non-fat dried skimmed milk powder in PBS supplemented with 0.05% Tween20 (PBS-T) for 1 hour at room temperature (R.T). Membrane was then probed with primary antibody at 4° C. overnight. Next, the membrane was incubated with the appropriate HRP-conjugated secondary antibody, for 1 hour at R.T. and washed 15 min×3 with PBS-T. WesternBright ECL (Advansta) was added to the membrane for 2 min and analyzed using ImageQuant LAS-4000 analyzer (GE Healthcare Life Sciences) & “ImageQuant LAS-4000” software (GE Healthcare Life Sciences). Densitometry analysis was performed using ImageQuant total lab 7 (GE Healthcare Life Sciences), image analysis software.
(§3) The inventors next examined whether caspases mediate the cleavage of the N′-terminal part of ARTS. To this end, the inventors transfected M2 cells with 6myc-ARTS and cells were either untreated or treated with a pan inhibitor of all caspases, Q-VD. […] In contrast, no change in XIAP levels was shown (FIG. 7D).

[2] = tested on: Bcl-2; assay: as above; type: cell-based, human
Procedure: as §1, §2, §3

[3] = tested on: XIAP; assay: as above; type: cell-based, human
Procedure: as §1, §2, §3

[4] = molecular target: T1, fluorescently labeled Bir3 (His-tagged) domain of XIAP, residues 252-350 (Homo sapiens, UniProt P98170); assay: MicroScale Thermophoresis (MST) binding to Bir3 domain of XIAP; conditions: 340 nM fl-labeled Bir3, pH 5.6, 2% DMSO, read-out: calculated Kd
T1 construct: His-tagged Bir3 (XIAP 252-350) was expressed and purified; made in house
Procedure: His-tagged Bir3 (XIAP 252-350) was expressed and purified as previously described (Reingewertz et al, 2011). The purified Bir3 was labeled with the Monolith NT™ Protein Labeling Kit RED according to the supplied labeling protocol.
(§4) 340 nM of fl-labeled Bir3 was titrated with A4 compound in 1:1 dilutions beginning at 500 μM, in a 25 mM Tri-Sodium acetate buffer pH 5.6, 2% DMSO and 0.05% Tween 20. The measurements were performed on a NanoTemper Monolith instrument.
(§5) To further characterize the A4 candidate, MicroScale Thermophoresis (MST) was used to evaluate the binding of the A4 compound to fluorescently labeled Bir3 (His-tagged) domain of XIAP, residues 252-350. […] Microscale thermophoresis (MST) is a technology for the interaction analysis of biomolecules. Microscale thermophoresis is the directed movement of particles in a microscopic temperature gradient. Any change of the hydration shell of biomolecules due to changes in their structure/conformation results in a relative change of the movement along the temperature gradient and is used to determine binding affinities. MST allows measurement of interactions directly in solution without the need of immobilization to a surface (immobilization-free technology).

[5] = molecular target: recombinant GST-tagged XIAP (Homo sapiens, UniProt P98170); assay: MicroScale Thermophoresis (MST) binding to whole XIAP; conditions: GST-tagged XIAP (FIG. 4D), read-out: calculated Kd
Procedure: as §4, §5
To further characterize the A4 candidate, the MSTtechnology described above was used to evaluate the binding of the A4 compound to recombinant GST-tagged XIAP, as presented in FIG. 4D.

[6] = tested on: Bcl-2; assay: Western blot, A375 human melanoma cells; type: cell-based; conditions: 20 μM, 24 hrs
Procedure: as §2
(§6) The candidate molecules were next subjected to functional assays, examining their ability to induce apoptosis. Therefore, the expression of several apoptotic markers was examined in A375 human melanoma cells exposed to 20 μM of each of the candidate compounds. […] No effect on cCaspase or c-PARP was shown.

[7] = tested on: c-PARP; assay: Western blot, A375 human melanoma cells; type: cell-based; conditions: 20 μM, 24 hrs
Procedure: as §2, §6

[8] = tested on: cCaspase; assay: Western blot, A375 human melanoma cells; type: cell-based; conditions: 20 μM, 24 hrs
Procedure: as §2, §6

[9] = tested on: Bcl-2; assay: Proteasome-mediated degradation study, T47D breast cancer cells; type: cell-based
Procedure: as §2
(§7) T47D breast cancer cells: 1*10^6 T47D cells were seeded on a 10 cm plate in RPMI and were propagated to 80% confluence. Cells were treated for 1 hour with either DMSO (control) or 30 μM A4 together with 20 μM MG-132 (proteasome inhibitor) or without MG-132. […]

[10] = tested on: Bcl-2; assay: Proteasome-mediated degradation study, HeLa cervical cancer cells; type: cell-based
Procedure: as §2
(§8) HeLa cervical cancer cells: 1.5*10^6 HeLa cells were seeded on a 10 cm plate in DMEM and were propagated to 80% confluence. Cells were treated for 2 hour with either DMSO (control) or 30 μM A4 together with 20 μM MG-132 (proteasome inhibitor) or without MG-132. […]

[11] = tested on: M2 cells (MCF10AT1K, premalignant breast cells); assay: Proliferation assay of M2 cells in 2D culture; type: cell-based, human; conditions: 24 and 48 hours
Procedure: Human breast cancer cell lines MCF-10A (M1) was received from Prof. Israel Vlodavsky (Technion, Israel), MCF10AT1K (M2) and MCF10ACA1 h (M3) were received from Dr. Fred Miller (Barbara Ann Karmanos Cancer Institute). M1 and M2 cells were maintained in DMEM/F12 supplemented with 5% donor horse serum (DHS), 1% sodium pyrovate, 1% L-glutamine, 0.02 μg/ml epidermal growth factor (EGF; Peprotech), 0.01 mg/ml insulin (Sigma), 0.5 μg/ml hydrocortisone (Sigma), 0.1 μg/ml cholera toxin (Sigma) and 1% penicillin-streptomycin at 37° C., 5% CO2 incubator. M3 cells were maintained in DMEM/F12 supplemented with 5% DHS and 1% penicillin-streptomycin at 37° C. and incubated in 5% CO2 incubator.
The CellTiter 96 AqueousOne Solution of cell proliferation assay kit (Promega) was added to the wells for 2 hours to measure cell proliferation according the manufacturer's instructions. The absorbance was recorded at 490 nm.

[12] = tested on: M2 organoids; assay: M2 organoids in 3D BME culture, polarization and lumen formation; type: cell-based, human
Procedure: Cells were harvested from their growth plates using 0.25% trypsin EDTA. Collected cells were cultured in Cultrex® growth factor reduced Basement Membrane Extract (BME: Trevigen, Inc) as follows: An 8 chamber glass slide system (Lab-TEK® II, Naperville, IL) was coated with 60 μl BME [Barkan D. et al., Cancer Research (2008)](protein concentration between 15 mg/ml; thickness˜1-2 mm). 5×10^3 cells per well were re-suspended in DMEM/F12 supplemented with 2.5% DHS and 2% BME and cultured on the coated slides. Slides were incubated at 37° C., 5% CO2 incubator. Cells were re-fed every 4 days. Cell morphology was monitored by light microscopy. Immunofluorescence images were captured by Nikon A1-R confocal laser scanning microscope (Haifa University, Haifa, Israel).
Laminin5 immunofluorescence staining: was performed as described by Barkan et al., [Cancer Research (2008)]. Briefly, cells cultured in 8 well chamber glass slides in 3D BME, as described above. The cultured cells were fixed and permeabalized for 5 minutes with 4% Paraformaldehyde (PFA) containing 5% sucrose and 0.2% Triton X-100, and re-fixed for an additional 25 minutes with 4% PFA containing 5% sucrose. The cells were washed for 10 minutes with PBS and an additional 10 minutes with PBS containing 0.05% Tween 20 (Sigma). Fixed cells were blocked with 3% BSA in PBS for 1 hour and incubated overnight at 4° C. with primary antibody (Rabbit polyclonal antibody to Laminin-5 (1:200)). The cells were washed three times with PBS for 15 minutes each, and incubated for 1 hour with […] conjugated to Alexa Fluor®647 (Invitrogen), washed as above and mounted with VECTASHIELD mounting medium with 4′,6-diamidino-2-phenylindole (DAPI). For F-actin staining cells were incubated over night with Alexa-Fluor®488 Phalloidin (1:40) (Molecular Probes) washed three times with PBS for 15 minutes each, and mounted with VECTASHIELD mounting medium with DAPI. The slides were imaged using Nikon A1-R confocal laser scanning microscope (Haifa University, Haifa, Israel). […]

[13] = tested on: 293 cells stably expressing Bcl-2 cherry reporter; assay: Combination with BH3 mimetic in Bcl-2 cherry reporter cells; type: cell-based; conditions: A4 combined with ABT199, 293 cells Bcl-2 cherry reporter
Procedure: pcDNA-3.1 vector carrying Bcl2 with an mCherry fusion c′ terminus fluorescent tag and neomycin (G418) resistance sequences was transfected into HEK 293T cells using Turbofect (Fermentas). Cells were then treated with G418, and resistant fluorescent cells were further sorted and isolated by FACS-sorter. Mono-clones of the stably expressing Bcl2-mCherry and G418 resistance were propagated and used for the experiments.

[14] = molecular target: T2, XIAP (Homo sapiens, UniProt P98170); assay: Proteasome-mediated degradation study, T47D breast cancer cells; type: cell-based; design: endogenous in cells; host or cells: T47D breast cancer cells
Procedure: as §2, §7

[15] = molecular target: T2, XIAP; assay: Western blot, A375 human melanoma cells; type: cell-based; design: endogenous in cells; host or cells: A375 human melanoma cells; conditions: 20 μM, 24 hrs
Procedure: as §2, §6

[16] = molecular target: T2, XIAP; assay: Proteasome-mediated degradation study, HeLa cervical cancer cells; type: cell-based; design: endogenous in cells; host or cells: HeLa cervical cancer cells
Procedure: as §2, §8

[17] = 30 μM A4 + 20 μM MG-132, 1 hour
[18] = 30 μM A4 + 20 μM MG-132, 2 hour

T2 sequence (P98170 whole entry): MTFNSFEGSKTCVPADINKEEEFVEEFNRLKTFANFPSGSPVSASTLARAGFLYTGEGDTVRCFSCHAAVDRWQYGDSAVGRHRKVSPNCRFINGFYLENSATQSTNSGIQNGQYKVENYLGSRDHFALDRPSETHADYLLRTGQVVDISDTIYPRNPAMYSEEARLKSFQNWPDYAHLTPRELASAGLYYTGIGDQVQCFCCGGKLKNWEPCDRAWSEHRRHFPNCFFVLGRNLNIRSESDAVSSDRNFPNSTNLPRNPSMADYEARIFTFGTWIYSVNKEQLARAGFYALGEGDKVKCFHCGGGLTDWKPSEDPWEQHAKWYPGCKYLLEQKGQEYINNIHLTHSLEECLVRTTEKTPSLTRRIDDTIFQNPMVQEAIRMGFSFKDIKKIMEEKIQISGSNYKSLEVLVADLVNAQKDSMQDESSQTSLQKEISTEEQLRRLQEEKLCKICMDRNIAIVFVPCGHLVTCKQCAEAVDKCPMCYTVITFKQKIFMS
Sequence of recombinant GST-tagged XIAP (P98170 whole entry): as above
T1 sequence (P98170 252-350): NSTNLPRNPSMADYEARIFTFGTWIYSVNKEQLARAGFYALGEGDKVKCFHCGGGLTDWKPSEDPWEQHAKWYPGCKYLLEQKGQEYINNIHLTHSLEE

SMILES: CC(C)[C@H](NC(=O)c1ccc2ccccc2n1)C(=O)N[C@@H](CC(=O)O)C(=O)COc1c(F)cccc1F [Q-VD]
- cleaved 6-myc ARTS [1]: decrease
- uncleaved 6myc-ARTS [1]: increase
- Bcl-2 levels [2]: significantly increased
- XIAP levels [3]: no change

SMILES: COC(=O)c1[nH]c2ccc(Cl)cc2c1NC(=O)CN1CCN(Cc2ccccc2)CC1 [A4, methyl 5-chloro-3-[[2-[4-(phenylmethyl)piperazin-1-yl]acetyl]amino]-1H-indole-2-carboxylate]
- Kd [4]: 46.1 ± 3.65 µM
- Kd [5]: 34.6 ± 2.48 µM
- levels of Bcl-2 [6]: clearly reduced
- effect on c-PARP [7]: No effect
- effect on cCaspase [8]: No effect
- Bcl-2 levels with proteasome inhibitor [9, 17]: restored
- Bcl-2 levels ([9]; 30 μM A4, 1 hour): decrease
- Bcl-2 levels with proteasome inhibitor [10, 18]: restored
- Bcl-2 levels ([10]; 30 μM A4, 2 hour): decrease
- apoptotic cells [11]: only low amount of apoptotic cells
- cell proliferation [11]: decrease in cell proliferation
- apicobasal polarization (GM130, Laminin 5 staining) ([12]; 40 μM, 7 days): initiation of apical staining of GM130 and basal staining of Laminin 5
- organoid phenotype ([12]; 40 uM, 14 days): conversion thereof to a normal-like phenotype
- polarization and lumen formation ([12]; 40 uM, 14 days): apicobasal polarization of M2 organoids followed by luminal formation
- effect of combination with BH3 mimetic [13]: synergetic effect
- XIAP levels with proteasome inhibitor [14, 17]: restored
- XIAP levels ([14]; 30 μM A4, 1 hour): specific decrease
- levels of XIAP [15]: clearly reduced
- XIAP levels with proteasome inhibitor [16, 18]: restored
- XIAP levels ([16]; 30 μM A4, 2 hour): specific decrease
